Assays:
[1] = target: MC4 receptor (Homo sapiens, UniProt P32245); assay: MC4 receptor functional potency (EC50), Protocol E of WO 2005/077935; format: cell-based; settings: read-out: functional potency at the MC4 receptor expressed as an EC50
Description: MC5 and MC4 activity was determined as described by assay protocols D and E, respectively, in US2005/0176772 (pages 28-30).

[2] = system: men with psychogenic and organic ED; settings: cited from earlier work

Sequence of MC4 receptor (P32245 whole entry): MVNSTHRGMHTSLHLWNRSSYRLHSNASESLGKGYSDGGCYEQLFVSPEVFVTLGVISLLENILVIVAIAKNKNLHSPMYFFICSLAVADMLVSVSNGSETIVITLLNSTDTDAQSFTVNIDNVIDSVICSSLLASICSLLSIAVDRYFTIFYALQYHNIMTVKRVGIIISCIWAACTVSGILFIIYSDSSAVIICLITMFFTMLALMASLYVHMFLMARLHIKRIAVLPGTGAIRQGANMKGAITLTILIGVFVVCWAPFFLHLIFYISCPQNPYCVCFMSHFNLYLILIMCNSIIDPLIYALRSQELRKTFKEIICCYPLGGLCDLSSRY

Compound: CO[C@H]1CN(C(=O)[C@@H]2CN(c3cccnn3)C[C@H]2c2ccc(F)cc2F)CC[C@]1(OC)c1ccccc1 [Example 8, 3-[(3R,4S)-3-(2,4-difluorophenyl)-4-{[(3S,4S)-3,4-dimethoxy-4-phenylpiperidin-1-yl]carbonyl}pyrrolidin-1-yl]pyridazine]
- EC50 [1]: 1.5 nM

Compound: CCO[C@@H]1CN(C(=O)[C@@H]2CN(c3cccnn3)C[C@H]2c2ccc(F)cc2F)CC[C@@]1(O)c1ccccc1 [Example 13, (3R,4R)-1-{[(3S,4R)-4-(2,4-difluorophenyl)-1-pyridazin-3-ylpyrrolidin-3-yl]carbonyl}-3-ethoxy-4-phenylpiperidin-4-ol]
- EC50 [1]: 44 nM

Compound: CO[C@H]1CN(C(=O)[C@@H]2CN(c3cccnn3)C[C@H]2c2ccc(F)cc2F)CC[C@]1(OC)c1ccc(F)cc1 [Example 15, 3-[(3R,4S)-3-(2,4-difluorophenyl)-4-{[(3S,4S)-4-(4-fluorophenyl)-3,4-dimethoxypiperidin-1-yl]carbonyl}pyrrolidin-1-yl]pyridazine]
- EC50 [1]: 11.5 nM

Compound: Melanotan II
- increased sexual desire reported (share of doses) ([2]; 13/19 doses, questionnaire, P<0.01 vs placebo): 68%
- subjects with severe nausea ([2]; dose of 0.025 mg/kg): 12.9%
- penile erection (number of men) ([2]; in the absence of sexual stimulation, men with psychogenic and organic ED): 17 of 20
- mean duration of Rigiscan tip rigidity >80% ([2]; penile rigidity monitored for 6 hours using RigiScan): 41 min
